# Data as given in the CheMixHub viscosity set.
# ± gives the uncertainty stated by the source.
# Experiment: xn = mol fraction of the nth substance listed
structure (smiles),measurement,setting,value
Brc1ccc(Br)cc1 + CC(C)O,viscosity,"298.15 K, 101 kPa, x1 = 0.02851",1.945 ± 0.05 mPa·s
same,viscosity,"303.15 K, 101 kPa, x1 = 0.02851",1.682 ± 0.043 mPa·s
same,viscosity,"303.15 K, 101 kPa, x1 = 0.04384",1.663 ± 0.042 mPa·s
same,viscosity,"308.15 K, 101 kPa, x1 = 0.02851",1.476 ± 0.038 mPa·s
same,viscosity,"308.15 K, 101 kPa, x1 = 0.04384",1.47 ± 0.037 mPa·s
same,viscosity,"313.15 K, 101 kPa, x1 = 0.02851",1.307 ± 0.033 mPa·s
same,viscosity,"313.15 K, 101 kPa, x1 = 0.04384",1.291 ± 0.033 mPa·s
same,viscosity,"318.15 K, 101 kPa, x1 = 0.02851",1.16 ± 0.03 mPa·s
same,viscosity,"318.15 K, 101 kPa, x1 = 0.04384",1.142 ± 0.029 mPa·s
C[N+](=O)[O-] + CC(C)O,viscosity,"293.15 K, 101.33 kPa, x2 = 0.0502",0.629 ± 0.006 mPa·s
same,viscosity,"293.15 K, 101.33 kPa, x2 = 0.1001",0.624 ± 0.006 mPa·s
same,viscosity,"293.15 K, 101.33 kPa, x2 = 0.1501",0.623 ± 0.006 mPa·s
same,viscosity,"293.15 K, 101.33 kPa, x2 = 0.2003",0.633 ± 0.006 mPa·s
same,viscosity,"293.15 K, 101.33 kPa, x2 = 0.25",0.649 ± 0.006 mPa·s
same,viscosity,"293.15 K, 101.33 kPa, x2 = 0.3",0.672 ± 0.006 mPa·s
same,viscosity,"293.15 K, 101.33 kPa, x2 = 0.35",0.701 ± 0.007 mPa·s
same,viscosity,"293.15 K, 101.33 kPa, x2 = 0.4001",0.731 ± 0.007 mPa·s
same,viscosity,"293.15 K, 101.33 kPa, x2 = 0.4501",0.772 ± 0.007 mPa·s
same,viscosity,"293.15 K, 101.33 kPa, x2 = 0.5",0.817 ± 0.008 mPa·s
same,viscosity,"293.15 K, 101.33 kPa, x2 = 0.55",0.868 ± 0.008 mPa·s
same,viscosity,"293.15 K, 101.33 kPa, x2 = 0.6",0.927 ± 0.008 mPa·s
same,viscosity,"293.15 K, 101.33 kPa, x2 = 0.65",1 ± 0.009 mPa·s
same,viscosity,"293.15 K, 101.33 kPa, x2 = 0.7",1.082 ± 0.01 mPa·s
same,viscosity,"293.15 K, 101.33 kPa, x2 = 0.75",1.182 ± 0.011 mPa·s
same,viscosity,"293.15 K, 101.33 kPa, x2 = 0.8",1.326 ± 0.012 mPa·s
same,viscosity,"293.15 K, 101.33 kPa, x2 = 0.85",1.485 ± 0.013 mPa·s
same,viscosity,"293.15 K, 101.33 kPa, x2 = 0.9",1.698 ± 0.015 mPa·s
same,viscosity,"293.15 K, 101.33 kPa, x2 = 0.95",1.988 ± 0.018 mPa·s
same,viscosity,"298.15 K, 101 kPa, x1 = 0.1361",1.599 ± 0.16 mPa·s
same,viscosity,"298.15 K, 101 kPa, x1 = 0.2622",1.267 ± 0.13 mPa·s
same,viscosity,"298.15 K, 101 kPa, x1 = 0.3785",1.025 ± 0.1 mPa·s
same,viscosity,"298.15 K, 101 kPa, x1 = 0.4866",0.8807 ± 0.089 mPa·s
same,viscosity,"298.15 K, 101 kPa, x1 = 0.5871",0.7784 ± 0.079 mPa·s
same,viscosity,"298.15 K, 101 kPa, x1 = 0.6805",0.7133 ± 0.072 mPa·s
same,viscosity,"298.15 K, 101 kPa, x1 = 0.7685",0.6771 ± 0.068 mPa·s
same,viscosity,"298.15 K, 101 kPa, x1 = 0.8503",0.6562 ± 0.066 mPa·s
same,viscosity,"298.15 K, 101 kPa, x1 = 0.9277",0.6386 ± 0.064 mPa·s
same,viscosity,"303.15 K, 101.33 kPa, x2 = 0.0502",0.561 ± 0.005 mPa·s
same,viscosity,"303.15 K, 101.33 kPa, x2 = 0.1001",0.552 ± 0.005 mPa·s
same,viscosity,"303.15 K, 101.33 kPa, x2 = 0.1501",0.55 ± 0.005 mPa·s
same,viscosity,"303.15 K, 101.33 kPa, x2 = 0.2003",0.554 ± 0.005 mPa·s
same,viscosity,"303.15 K, 101.33 kPa, x2 = 0.25",0.564 ± 0.005 mPa·s
same,viscosity,"303.15 K, 101.33 kPa, x2 = 0.3",0.579 ± 0.005 mPa·s
same,viscosity,"303.15 K, 101.33 kPa, x2 = 0.35",0.597 ± 0.006 mPa·s
same,viscosity,"303.15 K, 101.33 kPa, x2 = 0.4001",0.616 ± 0.006 mPa·s
same,viscosity,"303.15 K, 101.33 kPa, x2 = 0.4501",0.647 ± 0.006 mPa·s
same,viscosity,"303.15 K, 101.33 kPa, x2 = 0.5",0.679 ± 0.006 mPa·s
same,viscosity,"303.15 K, 101.33 kPa, x2 = 0.55",0.716 ± 0.007 mPa·s
same,viscosity,"303.15 K, 101.33 kPa, x2 = 0.6",0.758 ± 0.007 mPa·s
same,viscosity,"303.15 K, 101.33 kPa, x2 = 0.65",0.811 ± 0.007 mPa·s
same,viscosity,"303.15 K, 101.33 kPa, x2 = 0.7",0.867 ± 0.008 mPa·s
same,viscosity,"303.15 K, 101.33 kPa, x2 = 0.75",0.937 ± 0.009 mPa·s
same,viscosity,"303.15 K, 101.33 kPa, x2 = 0.8",1.044 ± 0.01 mPa·s
same,viscosity,"303.15 K, 101.33 kPa, x2 = 0.85",1.154 ± 0.01 mPa·s
same,viscosity,"303.15 K, 101.33 kPa, x2 = 0.9",1.302 ± 0.012 mPa·s
same,viscosity,"303.15 K, 101.33 kPa, x2 = 0.95",1.503 ± 0.013 mPa·s
same,viscosity,"313.15 K, 101.33 kPa, x2 = 0.0502",0.504 ± 0.005 mPa·s
same,viscosity,"313.15 K, 101.33 kPa, x2 = 0.1001",0.494 ± 0.005 mPa·s
same,viscosity,"313.15 K, 101.33 kPa, x2 = 0.1501",0.49 ± 0.005 mPa·s
same,viscosity,"313.15 K, 101.33 kPa, x2 = 0.2003",0.491 ± 0.005 mPa·s
same,viscosity,"313.15 K, 101.33 kPa, x2 = 0.25",0.496 ± 0.005 mPa·s
same,viscosity,"313.15 K, 101.33 kPa, x2 = 0.3",0.507 ± 0.005 mPa·s
same,viscosity,"313.15 K, 101.33 kPa, x2 = 0.35",0.518 ± 0.005 mPa·s
same,viscosity,"313.15 K, 101.33 kPa, x2 = 0.4001",0.535 ± 0.005 mPa·s
same,viscosity,"313.15 K, 101.33 kPa, x2 = 0.4501",0.552 ± 0.005 mPa·s
same,viscosity,"313.15 K, 101.33 kPa, x2 = 0.5",0.574 ± 0.005 mPa·s
same,viscosity,"313.15 K, 101.33 kPa, x2 = 0.55",0.601 ± 0.006 mPa·s
same,viscosity,"313.15 K, 101.33 kPa, x2 = 0.6",0.639 ± 0.006 mPa·s
same,viscosity,"313.15 K, 101.33 kPa, x2 = 0.65",0.673 ± 0.006 mPa·s
same,viscosity,"313.15 K, 101.33 kPa, x2 = 0.7",0.71 ± 0.007 mPa·s
same,viscosity,"313.15 K, 101.33 kPa, x2 = 0.75",0.764 ± 0.007 mPa·s
same,viscosity,"313.15 K, 101.33 kPa, x2 = 0.8",0.837 ± 0.008 mPa·s
same,viscosity,"313.15 K, 101.33 kPa, x2 = 0.85",0.917 ± 0.008 mPa·s
same,viscosity,"313.15 K, 101.33 kPa, x2 = 0.9",1.023 ± 0.009 mPa·s
same,viscosity,"313.15 K, 101.33 kPa, x2 = 0.95",1.159 ± 0.011 mPa·s
N#C[S-].NC(N)=[NH2+] + CC(N)=O,viscosity,"293.15 K, 100 kPa, x1 = 0.25",25.56 ± 0.34 mPa·s
same,viscosity,"293.15 K, 100 kPa, x1 = 0.3333",25.06 ± 0.33 mPa·s
same,viscosity,"298.13 K, 100 kPa, x1 = 0.25",21.49 ± 0.28 mPa·s
same,viscosity,"298.13 K, 100 kPa, x1 = 0.3333",21.05 ± 0.28 mPa·s
same,viscosity,"303.15 K, 100 kPa, x1 = 0.2",16.53 ± 0.22 mPa·s
same,viscosity,"303.15 K, 100 kPa, x1 = 0.25",17.47 ± 0.23 mPa·s
same,viscosity,"303.15 K, 100 kPa, x1 = 0.3333",17.16 ± 0.23 mPa·s
same,viscosity,"308.15 K, 100 kPa, x1 = 0.2",13.36 ± 0.18 mPa·s
same,viscosity,"308.15 K, 100 kPa, x1 = 0.25",14.41 ± 0.19 mPa·s
same,viscosity,"308.15 K, 100 kPa, x1 = 0.3333",14.05 ± 0.19 mPa·s
same,viscosity,"313.15 K, 100 kPa, x1 = 0.2",10.98 ± 0.15 mPa·s
same,viscosity,"313.15 K, 100 kPa, x1 = 0.25",12.05 ± 0.16 mPa·s
same,viscosity,"313.15 K, 100 kPa, x1 = 0.3333",11.66 ± 0.15 mPa·s
same,viscosity,"318.15 K, 100 kPa, x1 = 0.2",9.17 ± 0.12 mPa·s
same,viscosity,"318.15 K, 100 kPa, x1 = 0.25",10.31 ± 0.14 mPa·s
same,viscosity,"318.15 K, 100 kPa, x1 = 0.3333",9.89 ± 0.13 mPa·s
same,viscosity,"323.15 K, 100 kPa, x1 = 0.2",7.72 ± 0.1 mPa·s
same,viscosity,"323.15 K, 100 kPa, x1 = 0.25",8.95 ± 0.12 mPa·s
same,viscosity,"323.15 K, 100 kPa, x1 = 0.3333",8.48 ± 0.11 mPa·s
CCCCOC(=O)C(C)O (stereo not given) + CC(O)CO,viscosity,"293.15 K, 101 kPa, x1 = 0.3",17.35 ± 0.18 mPa·s
same,viscosity,"293.15 K, 101 kPa, x1 = 0.6996",6.325 ± 0.09 mPa·s
same,viscosity,"303.15 K, 101 kPa, x1 = 0.0999",21.45 ± 0.2 mPa·s
same,viscosity,"308.15 K, 101 kPa, x1 = 0.3999",6.935 ± 0.08 mPa·s
same,viscosity,"323.15 K, 101 kPa, x1 = 0.2",6.665 ± 0.067 mPa·s
same,viscosity,"323.15 K, 101 kPa, x1 = 0.4998",3.435 ± 0.043 mPa·s
